Test results reported in ChEMBL document CHEMBL1140374, “2-n-Butyl-9-methyl-8-[1,2,3]triazol-2-yl-9H-purin-6-ylamine and analogues as A2A adenosine receptor antagonists. Design, synthesis, and pharmacological characterization” (J Med Chem, 2005).
One block for each compound: values may come before it.

Assays:
[1] = target: Vesicular acetylcholine transporter (Homo sapiens, UniProt Q16572); assay: (§1) Percent inhibition against Acetylcholine transporter at 1 uM
Adenosine receptor A2a = Adenosine receptor A2a (Homo sapiens, UniProt P29274); assay: biochemical
Adenosine receptor A2b = target: T1, Adenosine receptor A2b (Homo sapiens, UniProt P29275); assay: Binding affinity towards human Adenosine A2b receptor expressed in HEK293 cells using 5 nM [3H]DPCPX; type: cell-based
T1 sequence (P29275 whole entry): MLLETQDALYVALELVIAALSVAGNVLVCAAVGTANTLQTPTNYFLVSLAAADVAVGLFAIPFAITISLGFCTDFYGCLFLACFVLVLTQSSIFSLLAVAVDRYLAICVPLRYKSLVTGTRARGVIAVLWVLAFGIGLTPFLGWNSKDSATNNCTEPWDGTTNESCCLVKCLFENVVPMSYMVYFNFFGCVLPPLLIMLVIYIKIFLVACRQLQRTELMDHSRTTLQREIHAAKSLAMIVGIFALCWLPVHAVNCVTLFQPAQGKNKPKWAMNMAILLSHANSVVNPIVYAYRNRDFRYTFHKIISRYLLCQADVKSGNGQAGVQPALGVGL

Adenosine receptor A1 = target: T2, Adenosine receptor A1 (Homo sapiens, UniProt P30542); assay: biochemical
T2 sequence (P30542 whole entry): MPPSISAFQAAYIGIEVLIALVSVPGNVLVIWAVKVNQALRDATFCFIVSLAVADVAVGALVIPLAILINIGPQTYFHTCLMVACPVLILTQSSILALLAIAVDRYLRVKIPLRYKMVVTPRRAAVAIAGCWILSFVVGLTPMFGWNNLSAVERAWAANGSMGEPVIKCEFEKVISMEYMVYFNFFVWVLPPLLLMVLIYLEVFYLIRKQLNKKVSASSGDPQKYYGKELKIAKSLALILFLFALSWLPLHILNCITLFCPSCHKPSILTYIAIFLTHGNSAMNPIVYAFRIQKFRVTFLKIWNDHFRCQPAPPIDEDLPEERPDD

[2] = target: GABA-A receptor; anion channel; assay: (§2) Percent inhibition against GABAA receptor alpha at a compound concentration of 1 uM; type: protein-complex assay, Homo sapiens
[3] = target: Sodium-dependent serotonin transporter (Homo sapiens) (UniProt P31645); conditions: 1 uM
Homo sapiens [4] = species: Homo sapiens; assay: Percent inhibition against P2X Purinergic receptor at 1 uM; type: tissue-based
[5] = target: Sodium-dependent noradrenaline transporter (Homo sapiens) (UniProt P23975); assay: Percent inhibition against Norepinephrine transporter at 1 uM nonselective
[6] = target: 5-hydroxytryptamine receptor 6 (Homo sapiens) (UniProt P50406); assay: Percent inhibition against 5-hydroxytryptamine 6 receptor at 1 uM
[7] = target: 5-hydroxytryptamine receptor 1A (Homo sapiens) (UniProt P08908); assay: Percent inhibition against 5-hydroxytryptamine 1A receptor at 1 uM
[8] = target: 5-hydroxytryptamine receptor 2C (Homo sapiens) (UniProt P28335); assay: Percent inhibition against 5-hydroxytryptamine 2C receptor at 1 uM
[9] = target: Beta-1 adrenergic receptor (Homo sapiens) (UniProt P08588); conditions: 1 uM
[10] = target: D(2) dopamine receptor (Homo sapiens) (UniProt P14416); conditions: 1 uM
[11] = target: T3, GABA-A receptor; anion channel (Homo sapiens) (UniProt P14867+P47870+P18507+P28472+P48169+Q99928+Q9UN88+P34903+O00591+O14764+Q8N1C3+P18505+P78334+P47869+P31644+Q16445); assay: as §2; type: protein-complex assay
[12] = target: T4, Glutamate [NMDA] receptor (Homo sapiens) (UniProt Q05586+Q12879+Q13224+O15399+O60391+Q14957+Q8TCU5); assay: Percent inhibition against PCP receptor at 1 uM; type: protein-complex assay
[13] = target: Glutamate receptor ionotropic AMPA (Homo sapiens) (UniProt P48058+P42263+P42262+P42261); assay: (§3) Percent inhibition against AMPA receptor at 1 uM; type: protein-complex assay
[14] = target: T3, GABA-A receptor; anion channel (Homo sapiens); assay: Percent inhibition against central Benzodiazepine receptor at 1 uM; type: protein-complex assay
[15] = target: GABA-B receptor (Homo sapiens) (UniProt Q9UBS5+O75899); assay: Percent inhibition against GABA-B receptor at 1 uM; type: protein-complex assay
[16] = target: Opioid receptors; mu/kappa/delta (Homo sapiens) (UniProt P41145+P41143+P35372); conditions: at 1 µM
[17] = target: Muscarinic acetylcholine receptor M2 (Homo sapiens) (UniProt P08172); conditions: 1 uM
[18] = target: Muscarinic acetylcholine receptor M3 (Homo sapiens) (UniProt P20309); assay: Percent inhibition against Muscarinic acetylcholine receptor M3 at 1 uM
Homo sapiens [19] = species: Homo sapiens; assay: (§4) Percent inhibition against P2Y Purinoceptor at 1 uM
[20] = target: 5-hydroxytryptamine receptor 4 (Homo sapiens) (UniProt Q13639); assay: Percent inhibition against 5-hydroxytryptamine 4 receptor at 1 uM
[21] = target: Serotonin 3 (5-HT3) receptor (Homo sapiens) (UniProt P46098+A5X5Y0+O95264+Q70Z44+Q8WXA8); conditions: 1 uM
[22] = target: 5-hydroxytryptamine receptor 5A (Homo sapiens) (UniProt P47898); conditions: 1 uM
[23] = target: Adrenergic receptor alpha-1 (Homo sapiens) (UniProt P35348+P25100+P35368); conditions: 1 uM
[24] = target: Muscarinic acetylcholine receptor M5 (Homo sapiens) (UniProt P08912); assay: Percent inhibition against Muscarinic acetylcholine receptor M5 at 1 uM
[25] = target: Muscarinic acetylcholine receptor M1 (Homo sapiens) (UniProt P11229); conditions: at 1 µM
[26] = target: Sodium-dependent dopamine transporter (Homo sapiens) (UniProt Q01959); conditions: 1 uM
[27] = target: Vesicular acetylcholine transporter (Homo sapiens) (UniProt Q16572); assay: as §1
[28] = target: T4, Glutamate [NMDA] receptor (Homo sapiens); assay: Percent inhibition against NMDA receptor at a compound concentration of 1 uM; type: protein-complex assay
[29] = target: Muscarinic acetylcholine receptor M4 (Homo sapiens) (UniProt P08173); assay: Percent inhibition against Muscarinic acetylcholine receptor M4 at 1 uM
[30] = target: D(3) dopamine receptor (Homo sapiens) (UniProt P35462); assay: Percent inhibition against Dopamine receptor D3 at 1 uM
[31] = target: 5-hydroxytryptamine receptor 2A (Homo sapiens) (UniProt P28223); assay: Percent inhibition against 5-hydroxytryptamine 2A receptor at 1 uM
[32] = target: D(1B) dopamine receptor (Homo sapiens) (UniProt P21918); assay: Percent inhibition against Dopamine receptor D5 at 1 uM
[33] = target: Equilibrative nucleoside transporter 1 (Homo sapiens) (UniProt Q99808); assay: Percent inhibition against ADO transporter at 1 uM nonselective
[34] = target: Beta-2 adrenergic receptor (Homo sapiens) (UniProt P07550); assay: Percent inhibition against Beta-2 adrenergic receptor at 1 uM
Adenosine receptor A3 = Adenosine receptor A3 (Homo sapiens, UniProt P0DMS8); assay: Binding affinity towards human Adenosine A3 receptor expressed in HEK293 cells using 0.1 nM [3H]AB-MECA; type: cell-based
[35] = target: D(1A) dopamine receptor (Homo sapiens) (UniProt P21728); conditions: 1 uM
[36] = target: D(4) dopamine receptor (Homo sapiens) (UniProt P21917); conditions: 1 uM
[37] = as §4; set-up: species or system Homo sapiens
[38] = target: Glutamate receptor ionotropic AMPA (Homo sapiens, UniProt P42261+P42262+P42263+P48058); assay: as §3; type: protein-complex assay

Adenosine receptor A2a, sequence (P29274 whole entry): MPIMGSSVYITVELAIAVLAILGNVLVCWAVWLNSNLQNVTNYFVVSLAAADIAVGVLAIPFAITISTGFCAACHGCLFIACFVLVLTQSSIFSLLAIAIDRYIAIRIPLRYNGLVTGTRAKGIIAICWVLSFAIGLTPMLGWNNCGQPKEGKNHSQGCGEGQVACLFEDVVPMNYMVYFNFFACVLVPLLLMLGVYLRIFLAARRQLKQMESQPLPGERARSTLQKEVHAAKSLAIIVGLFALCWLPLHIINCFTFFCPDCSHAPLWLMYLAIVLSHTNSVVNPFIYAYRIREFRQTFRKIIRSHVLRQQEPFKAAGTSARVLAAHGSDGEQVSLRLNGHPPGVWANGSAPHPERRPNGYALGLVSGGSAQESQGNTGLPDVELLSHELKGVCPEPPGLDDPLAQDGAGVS
5-hydroxytryptamine receptor 5A (Homo sapiens), sequence (P47898 whole entry): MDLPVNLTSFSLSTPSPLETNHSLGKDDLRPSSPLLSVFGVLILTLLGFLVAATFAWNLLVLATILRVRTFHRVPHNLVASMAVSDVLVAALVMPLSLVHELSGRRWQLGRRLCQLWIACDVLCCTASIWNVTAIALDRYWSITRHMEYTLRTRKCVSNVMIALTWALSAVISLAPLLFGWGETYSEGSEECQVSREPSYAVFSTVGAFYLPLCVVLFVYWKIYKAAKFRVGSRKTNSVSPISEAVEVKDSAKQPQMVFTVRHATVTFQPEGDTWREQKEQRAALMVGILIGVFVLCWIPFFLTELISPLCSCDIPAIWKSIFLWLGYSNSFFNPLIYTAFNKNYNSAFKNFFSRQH
Vesicular acetylcholine transporter (Homo sapiens), sequence (Q16572 whole entry): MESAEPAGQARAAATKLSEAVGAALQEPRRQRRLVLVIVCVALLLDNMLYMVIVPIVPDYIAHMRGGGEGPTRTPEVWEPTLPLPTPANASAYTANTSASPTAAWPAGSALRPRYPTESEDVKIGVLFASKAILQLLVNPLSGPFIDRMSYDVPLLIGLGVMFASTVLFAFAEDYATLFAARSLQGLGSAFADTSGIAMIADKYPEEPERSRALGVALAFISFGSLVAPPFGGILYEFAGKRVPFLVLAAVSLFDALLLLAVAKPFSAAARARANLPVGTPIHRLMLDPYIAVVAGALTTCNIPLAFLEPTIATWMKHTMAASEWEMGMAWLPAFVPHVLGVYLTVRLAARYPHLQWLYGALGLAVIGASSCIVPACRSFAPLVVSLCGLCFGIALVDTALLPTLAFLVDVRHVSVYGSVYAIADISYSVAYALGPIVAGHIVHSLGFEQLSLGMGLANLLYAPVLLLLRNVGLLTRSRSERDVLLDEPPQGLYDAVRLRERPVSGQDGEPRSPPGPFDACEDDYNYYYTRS
Beta-1 adrenergic receptor (Homo sapiens), sequence (P08588 whole entry, looked up): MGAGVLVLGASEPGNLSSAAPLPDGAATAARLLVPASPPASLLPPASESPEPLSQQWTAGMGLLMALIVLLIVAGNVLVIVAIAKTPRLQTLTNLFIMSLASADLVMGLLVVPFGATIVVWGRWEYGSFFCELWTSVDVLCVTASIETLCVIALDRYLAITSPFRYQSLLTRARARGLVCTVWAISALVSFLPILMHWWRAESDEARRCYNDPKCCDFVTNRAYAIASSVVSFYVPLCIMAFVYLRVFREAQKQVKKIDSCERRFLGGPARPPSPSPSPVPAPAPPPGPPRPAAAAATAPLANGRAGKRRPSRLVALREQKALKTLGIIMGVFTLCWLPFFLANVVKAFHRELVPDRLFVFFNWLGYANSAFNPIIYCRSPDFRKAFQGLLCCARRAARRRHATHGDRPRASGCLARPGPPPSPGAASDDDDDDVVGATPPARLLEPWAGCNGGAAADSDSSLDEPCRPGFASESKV
5-hydroxytryptamine receptor 2A (Homo sapiens), sequence (P28223 whole entry): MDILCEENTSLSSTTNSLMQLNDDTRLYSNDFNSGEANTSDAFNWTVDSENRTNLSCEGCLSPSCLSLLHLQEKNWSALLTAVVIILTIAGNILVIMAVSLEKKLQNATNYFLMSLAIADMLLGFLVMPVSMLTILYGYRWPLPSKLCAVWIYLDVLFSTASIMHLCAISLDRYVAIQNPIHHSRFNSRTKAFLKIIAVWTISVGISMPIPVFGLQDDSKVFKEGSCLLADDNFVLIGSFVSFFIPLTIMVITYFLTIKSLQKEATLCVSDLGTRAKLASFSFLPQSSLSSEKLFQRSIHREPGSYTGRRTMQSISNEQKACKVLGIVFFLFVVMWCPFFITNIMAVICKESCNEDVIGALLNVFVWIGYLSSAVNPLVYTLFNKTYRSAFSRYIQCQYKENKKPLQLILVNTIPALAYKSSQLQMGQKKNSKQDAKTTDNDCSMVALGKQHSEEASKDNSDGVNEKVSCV
5-hydroxytryptamine receptor 1A (Homo sapiens), sequence (P08908 whole entry): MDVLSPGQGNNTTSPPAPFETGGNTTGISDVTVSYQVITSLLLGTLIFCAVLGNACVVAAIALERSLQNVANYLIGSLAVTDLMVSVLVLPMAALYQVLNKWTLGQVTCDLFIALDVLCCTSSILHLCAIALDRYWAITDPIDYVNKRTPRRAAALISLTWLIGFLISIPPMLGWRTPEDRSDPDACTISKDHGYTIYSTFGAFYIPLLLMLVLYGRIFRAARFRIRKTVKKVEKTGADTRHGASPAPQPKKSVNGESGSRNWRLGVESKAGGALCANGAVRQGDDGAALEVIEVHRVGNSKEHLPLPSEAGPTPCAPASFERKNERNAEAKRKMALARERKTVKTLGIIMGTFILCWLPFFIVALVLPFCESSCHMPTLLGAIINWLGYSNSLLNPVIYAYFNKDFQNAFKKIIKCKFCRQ
Sodium-dependent dopamine transporter (Homo sapiens), sequence (Q01959 whole entry): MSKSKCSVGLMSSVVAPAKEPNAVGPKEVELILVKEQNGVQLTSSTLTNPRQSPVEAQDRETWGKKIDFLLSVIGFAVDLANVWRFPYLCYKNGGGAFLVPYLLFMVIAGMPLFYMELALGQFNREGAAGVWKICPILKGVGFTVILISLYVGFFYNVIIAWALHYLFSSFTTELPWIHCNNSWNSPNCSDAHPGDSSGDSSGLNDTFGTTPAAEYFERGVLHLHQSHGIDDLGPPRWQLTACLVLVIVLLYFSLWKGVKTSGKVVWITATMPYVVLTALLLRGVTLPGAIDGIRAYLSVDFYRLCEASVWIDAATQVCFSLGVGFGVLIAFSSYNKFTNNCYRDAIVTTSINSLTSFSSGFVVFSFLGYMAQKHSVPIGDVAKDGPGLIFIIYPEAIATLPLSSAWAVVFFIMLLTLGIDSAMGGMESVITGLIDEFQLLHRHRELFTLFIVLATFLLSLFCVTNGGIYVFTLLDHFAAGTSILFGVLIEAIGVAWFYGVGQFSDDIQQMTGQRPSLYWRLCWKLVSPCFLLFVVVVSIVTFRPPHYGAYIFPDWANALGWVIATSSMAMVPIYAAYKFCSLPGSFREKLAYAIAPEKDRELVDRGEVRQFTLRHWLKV
5-hydroxytryptamine receptor 4 (Homo sapiens), sequence (Q13639 whole entry): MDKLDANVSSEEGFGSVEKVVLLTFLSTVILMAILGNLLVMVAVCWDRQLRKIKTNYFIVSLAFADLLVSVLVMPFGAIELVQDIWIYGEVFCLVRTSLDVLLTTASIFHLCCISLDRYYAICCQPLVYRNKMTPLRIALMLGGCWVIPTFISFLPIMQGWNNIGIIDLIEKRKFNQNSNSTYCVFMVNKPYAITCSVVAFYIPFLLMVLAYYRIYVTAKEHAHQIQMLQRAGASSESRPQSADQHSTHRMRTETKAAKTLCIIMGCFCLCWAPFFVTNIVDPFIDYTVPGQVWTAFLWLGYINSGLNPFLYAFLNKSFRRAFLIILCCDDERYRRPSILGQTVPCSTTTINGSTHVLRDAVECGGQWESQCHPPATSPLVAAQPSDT
Sodium-dependent noradrenaline transporter (Homo sapiens), sequence (P23975 whole entry): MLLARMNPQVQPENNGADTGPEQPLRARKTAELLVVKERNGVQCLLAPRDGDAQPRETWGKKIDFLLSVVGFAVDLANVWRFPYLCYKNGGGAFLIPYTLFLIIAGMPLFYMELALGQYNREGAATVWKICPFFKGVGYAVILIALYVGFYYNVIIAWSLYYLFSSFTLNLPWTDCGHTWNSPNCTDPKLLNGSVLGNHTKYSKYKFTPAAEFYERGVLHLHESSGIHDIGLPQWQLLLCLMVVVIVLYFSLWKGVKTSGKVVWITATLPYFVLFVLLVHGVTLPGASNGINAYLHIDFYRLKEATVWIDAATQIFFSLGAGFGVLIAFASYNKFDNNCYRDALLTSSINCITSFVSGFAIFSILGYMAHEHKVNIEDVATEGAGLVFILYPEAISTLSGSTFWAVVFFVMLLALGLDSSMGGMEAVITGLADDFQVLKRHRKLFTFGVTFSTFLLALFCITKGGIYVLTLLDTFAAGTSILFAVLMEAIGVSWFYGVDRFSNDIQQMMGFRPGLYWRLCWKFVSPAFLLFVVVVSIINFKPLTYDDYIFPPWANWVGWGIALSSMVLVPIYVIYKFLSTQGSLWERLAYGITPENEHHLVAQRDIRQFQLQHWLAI
D(2) dopamine receptor (Homo sapiens), sequence (P14416 whole entry): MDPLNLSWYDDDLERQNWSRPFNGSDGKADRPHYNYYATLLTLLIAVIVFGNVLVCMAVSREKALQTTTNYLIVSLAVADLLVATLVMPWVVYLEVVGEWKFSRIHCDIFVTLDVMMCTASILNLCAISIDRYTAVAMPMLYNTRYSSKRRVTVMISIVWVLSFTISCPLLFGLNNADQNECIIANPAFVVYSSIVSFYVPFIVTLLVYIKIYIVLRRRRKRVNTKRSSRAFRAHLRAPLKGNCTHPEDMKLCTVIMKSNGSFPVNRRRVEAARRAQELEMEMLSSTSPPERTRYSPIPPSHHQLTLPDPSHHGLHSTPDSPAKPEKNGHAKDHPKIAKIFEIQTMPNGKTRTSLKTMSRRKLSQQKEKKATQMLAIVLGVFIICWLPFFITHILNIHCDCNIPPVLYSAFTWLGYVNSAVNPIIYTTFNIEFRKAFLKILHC
Vesicular acetylcholine transporter, sequence (Q16572 whole entry): as the sequence (Q16572 whole entry) above

Ki (Adenosine receptor A2a): 51.6 nM
Ki (Adenosine receptor A2b): 518 nM
Ki (Adenosine receptor A1): 1060 nM
Structure (SMILES): Cn1c(-n2nccn2)nc2c(N)nccc21

Ki (Adenosine receptor A2a): 120 nM
Ki (Adenosine receptor A2b): 140 nM
Ki (Adenosine receptor A1): 340 nM
Structure (SMILES): Cc1cc2c(nc(-n3nccn3)n2C)c(N)n1

Ki (Adenosine receptor A1): > 1000 nM
Structure (SMILES): CCn1c(=O)c2c(nc(/C=C/c3ccc(OC)c(OC)c3)n2C)n(CC)c1=O [ISTRADEFYLLINE]

Ki (Adenosine receptor A2a): 481 nM
Ki (Adenosine receptor A1): 2270 nM
Structure (SMILES): CC(C)c1nc(N)c2nc(-n3nccn3)n(C)c2n1

Ki (Adenosine receptor A2a): 935 nM
Ki (Adenosine receptor A1): > 100000 nM
Structure (SMILES): O=c1nc2[nH]c3ccccc3nc-2c(=O)[nH]1 [ALLOXAZINE]

IC50 [38]: 967 nM
Structure (SMILES): O=C(O)[C@@H]1C[C@H](CP(=O)(O)O)CCN1 [SELFOTEL]

Ki (Adenosine receptor A1): 0.4 nM
Structure (SMILES): Cn1c(-n2nccn2)nc2c(N)ncnc21

The remaining lines, values behind:

Structure (SMILES): C[N+]1(C)CCOC(O)(c2ccc(-c3ccc(C4(O)C[N+](C)(C)CCO4)cc3)cc2)C1 (centres undefined)
IC50 [1]: 12 nM

Structure (SMILES): CCCc1nc(N)c2nc(-n3nccn3)n(C)c2n1
Ki (Adenosine receptor A2a): 83.7 nM
Ki (Adenosine receptor A2b): 18 nM
Ki (Adenosine receptor A1): 266 nM

Structure (SMILES): Cc1nc(N)c2nc(-n3nccn3)n(C)c2n1
Ki (Adenosine receptor A1): 10.4 nM

Structure (SMILES): NCc1cc(=O)[nH]o1 [MUSCIMOL]
IC50 [2]: 16 nM

Structure (SMILES): CCCCCc1nc(N)c2nc(-n3nccn3)n(C)c2n1
inhibition [3]: < 10%
inhibition (Homo sapiens [4]): < 10%
inhibition [5]: < 10%
inhibition [6]: < 10%
inhibition [7]: < 10%
inhibition [8]: < 10%
inhibition [9]: < 10%
inhibition [10]: < 10%
inhibition [11]: < 10%
inhibition [12]: < 10%
inhibition [13]: < 10%
inhibition [14]: < 10%
inhibition [15]: < 10%
inhibition [16]: < 10%
inhibition [17]: < 10%
inhibition [18]: < 10%
inhibition (Homo sapiens [19]): < 10%
inhibition [20]: < 10%
inhibition [21]: < 10%
inhibition [22]: < 10%
inhibition [23]: < 10%
inhibition [24]: < 10%
inhibition [25]: < 10%
inhibition [26]: < 10%
inhibition [27]: < 10%
inhibition [28]: < 10%
inhibition [29]: < 10%
inhibition [30]: < 10%
inhibition [31]: < 10%
inhibition [32]: < 10%
inhibition [33]: 34%
inhibition [34]: < 10%
Ki (Adenosine receptor A3): 760 nM
inhibition [35]: < 10%
inhibition [36]: < 10%

Structure (SMILES): Nc1ncnc2c1ncn2[C@H]1C[C@H](O)[C@@H](COP(O)(=S)OP(=O)(O)OP(=O)(O)O)O1 (some centres undefined)
inhibition [37]: 22%

Structure (SMILES): CCCCc1nc(N)c2nc(-n3nccn3)n(C)c2n1 [ST1535]
inhibition [3]: < 10%
inhibition (Homo sapiens [4]): < 10%
inhibition [5]: < 10%
inhibition [6]: < 10%
inhibition [7]: < 10%
inhibition [8]: < 10%
inhibition [9]: < 10%
inhibition [10]: < 10%
inhibition [11]: < 10%
Ki (Adenosine receptor A2a): 6.6 nM
inhibition [12]: < 10%
Ki (Adenosine receptor A2b): 352 nM
inhibition [13]: < 10%
inhibition [14]: < 10%
inhibition [15]: < 10%
Ki (Adenosine receptor A1): 71.8 nM
inhibition [16]: < 10%
inhibition [17]: < 10%
inhibition [18]: < 10%
inhibition (Homo sapiens [19]): < 10%
inhibition [20]: < 10%
inhibition [21]: < 10%
inhibition [22]: < 10%
inhibition [23]: < 10%
inhibition [24]: < 10%
inhibition [25]: < 10%
inhibition [26]: < 10%
inhibition [27]: < 10%
inhibition [28]: < 10%
inhibition [29]: < 10%
inhibition [30]: < 10%
inhibition [31]: < 10%
inhibition [32]: < 10%
inhibition [33]: 24%
inhibition [34]: < 10%
Ki (Adenosine receptor A3): > 1000 nM
inhibition [35]: < 10%
inhibition [36]: < 10%

Structure (SMILES): Nc1ncnc2c1ncn2[C@@H]1O[C@H](COP(=O)(O)CP(=O)(O)OP(=O)(O)O)[C@@H](O)[C@H]1O [DIPHOSPHOMETHYLPHOSPHONIC ACID ADENOSYL ESTER]
inhibition [37]: 14%
